# Reference: patent US20250019385A1, “SPIROCYCLIC ANNULATED 2-AMINO-3-CYANO THIOPHENES AND DERIVATIVES FOR THE TREATMENT OF CANCER” (Boehringer Ingelheim International GmbH, priority 2023, published 2025)
# System: Ba/F3 cells KRAS G12C
# Test: Ba/F3 proliferation assay (KRAS G12C)
# Assay type: cell-based
# Conditions: Mus musculus, BaF3, 72 h, AlamarBlue viability
# Procedure, shortened: (§1)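 Ba/F3 cells retrovirally transduced with KRAS G12 mutant, puromycin-selected, grown IL-3-independent; seeded in RPMI-1640 + 10% FCS without IL-3. Logarithmic compound dose series in duplicate, 72 h at 37° C., AlamarBlue fluorescence as % of DMSO control; IC50 from four-parameter non-linear regression.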
row,SMILES,IC50
1,C[C@H](Oc1nc(-c2onc3c2CCC[C@@]32CCCc3sc(N)c(C#N)c32)nc2c1cnn2[C@@H]1CCOC1)[C@@H]1CCCN1C [I-43],32 nM
2,C[C@H](Oc1nc(-c2onc3c2CCC[C@@]32CCCc3sc(N)c(C#N)c32)nc2c1n(C)c(=O)n2[C@H]1CCOC1)[C@@H]1CCCN1C [I-9],38 nM
3,C[C@H](Oc1nc(-c2onc3c2CCC[C@@]32CCCc3sc(N)c(C#N)c32)nc2c1n(C)c(=O)n2C12COC(C1)C2)[C@@H]1CCCN1C [I-15],16 nM
4,C[C@H](Oc1nc(-c2noc3c2CCC[C@@]32CCCc3sc(N)c(C#N)c32)nc2c1CCC21CCOC1)[C@@H]1CCCN1C (some centres unmarked) [II-18],31 nM
5,CO[C@@H]1C[C@@H]([C@H](C)Oc2nc(-c3noc4c3CCC[C@@]43CCCc4sc(N)c(C#N)c43)nc3c2n(C)c(=O)n3[C@@]23COC[C@@H]2C3)N(C)C1 [II-6],2 nM
6,CO[C@@H]1C[C@@H]([C@H](C)Oc2nc(-c3onc4c3CCC[C@@]43CCCc4sc(N)c(C#N)c43)nc3c2n(C)c(=O)n3[C@@]23COC[C@@H]2C3)N(C)C1 [I-46],2 nM
7,CO[C@@H]1C[C@@H]([C@H](C)Oc2nc(-c3onc4c3CCC[C@@]43CCCc4sc(N)c(C#N)c43)nc3c2n(C)c(=O)n3[C@@H]2CCCOC2)N(C)C1 [I-14],5 nM
8,C[C@H](Oc1nc(-c2noc3c2CCC[C@@]32CCCc3sc(N)c(C#N)c32)nc2c1CCO[C@]21CCOC1)[C@@H]1CCCN1C [II-9b],5 nM
9,C[C@H](Oc1nc(-c2onc3c2CCC[C@@]32CCCc3sc(N)c(C#N)c32)nc2c1n(C)c(=O)n2[C@@H]1CCOC1)[C@@H]1[C@H](F)CCN1C [I-4],58 nM
10,C[C@H](Oc1nc(-c2onc3c2CCC[C@@]32CCCc3sc(N)c(C#N)c32)nc2c1n(C)c(=O)n2[C@@H]1CCOC1)[C@@H]1C[C@@H]2C[C@@H]2N1C [I-28],26 nM
11,CO[C@@H]1C[C@@H]([C@H](C)Oc2nc(-c3noc4c3CCC[C@@]43CCCc4sc(N)c(C#N)c43)nc3c2COC[C@]32CCOC2)N(C)C1 [II-11],1 nM

# System: Ba/F3 cells KRAS G12V
# Test: Ba/F3 proliferation assay (KRAS G12V)
# Assay type: cell-based
# Conditions: Mus musculus, BaF3, 72 h, AlamarBlue viability
# Procedure, shortened: as §1
row,SMILES,IC50
1,C[C@H](Oc1nc(-c2onc3c2CCC[C@@]32CCCc3sc(N)c(C#N)c32)nc2c1cnn2[C@@H]1CCOC1)[C@@H]1CCCN1C [I-43],18 nM
2,C[C@H](Oc1nc(-c2onc3c2CCC[C@@]32CCCc3sc(N)c(C#N)c32)nc2c1n(C)c(=O)n2[C@H]1CCOC1)[C@@H]1CCCN1C [I-9],20 nM
3,C[C@H](Oc1nc(-c2onc3c2CCC[C@@]32CCCc3sc(N)c(C#N)c32)nc2c1n(C)c(=O)n2C12COC(C1)C2)[C@@H]1CCCN1C [I-15],11 nM
4,C[C@H](Oc1nc(-c2noc3c2CCC[C@@]32CCCc3sc(N)c(C#N)c32)nc2c1CCC21CCOC1)[C@@H]1CCCN1C (some centres unmarked) [II-18],13 nM
5,CO[C@@H]1C[C@@H]([C@H](C)Oc2nc(-c3noc4c3CCC[C@@]43CCCc4sc(N)c(C#N)c43)nc3c2n(C)c(=O)n3[C@@]23COC[C@@H]2C3)N(C)C1 [II-6],1 nM
6,CO[C@@H]1C[C@@H]([C@H](C)Oc2nc(-c3onc4c3CCC[C@@]43CCCc4sc(N)c(C#N)c43)nc3c2n(C)c(=O)n3[C@@]23COC[C@@H]2C3)N(C)C1 [I-46],1 nM
7,CO[C@@H]1C[C@@H]([C@H](C)Oc2nc(-c3onc4c3CCC[C@@]43CCCc4sc(N)c(C#N)c43)nc3c2n(C)c(=O)n3[C@@H]2CCCOC2)N(C)C1 [I-14],2 nM
8,C[C@H](Oc1nc(-c2noc3c2CCC[C@@]32CCCc3sc(N)c(C#N)c32)nc2c1CCO[C@]21CCOC1)[C@@H]1CCCN1C [II-9b],2 nM
9,C[C@H](Oc1nc(-c2onc3c2CCC[C@@]32CCCc3sc(N)c(C#N)c32)nc2c1n(C)c(=O)n2[C@@H]1CCOC1)[C@@H]1[C@H](F)CCN1C [I-4],25 nM
10,C[C@H](Oc1nc(-c2onc3c2CCC[C@@]32CCCc3sc(N)c(C#N)c32)nc2c1n(C)c(=O)n2[C@@H]1CCOC1)[C@@H]1C[C@@H]2C[C@@H]2N1C [I-28],12 nM
11,CO[C@@H]1C[C@@H]([C@H](C)Oc2nc(-c3noc4c3CCC[C@@]43CCCc4sc(N)c(C#N)c43)nc3c2COC[C@]32CCOC2)N(C)C1 [II-11],1 nM

# System: LOVO cells
# Test: LOVO CTG proliferation assay (120 h) (CRC, G13D)
# Assay type: cell-based
# Conditions: Homo sapiens
# Procedure: LOVO cells (ATCC No. CCL-229) are dispensed into black 384-well plates, flat and clear bottom (Greiner, PNr. 781091) at a density of 1000 cells per well in 60 μl DMEM (Sigma D6429)+10% FCS (fetal calf serum, HyClone, SH30084.03). Cells are incubated overnight at 37° C. in a humidified tissue culture incubator at 5% CO2. Compounds (10 mM stock in DMSO) are added at logarithmic dose series using the ECHO acoustic liquid handler system (Beckman Coulter), normalizing for added DMSO and including DMSO controls. All compound treatments are performed in technical duplicates. For the TO time point measurement, untreated cells are analyzed at the time of compound addition. Plates are incubated for 120 h, and cell viability is measured using CellTiter-Glo luminescent cell viability reagent (Promega product code G7570). Viability (stated as percent of control) is defined as relative luminescence units RLU of each well divided by the RLU of cells in DMSO controls. IC50 values are determined from viability measurements by non-linear regression using a four-parameter model.
# IC50 values of representative compounds according to the invention measured with these assays in the indicated cell lines are presented in Table 46.
row,SMILES,IC50
1,C[C@H](Oc1nc(-c2onc3c2CCC[C@@]32CCCc3sc(N)c(C#N)c32)nc2c1cnn2[C@@H]1CCOC1)[C@@H]1CCCN1C [I-43],15 nM
2,C[C@H](Oc1nc(-c2onc3c2CCC[C@@]32CCCc3sc(N)c(C#N)c32)nc2c1n(C)c(=O)n2[C@H]1CCOC1)[C@@H]1CCCN1C [I-9],90 nM
3,C[C@H](Oc1nc(-c2onc3c2CCC[C@@]32CCCc3sc(N)c(C#N)c32)nc2c1n(C)c(=O)n2C12COC(C1)C2)[C@@H]1CCCN1C [I-15],7 nM
4,C[C@H](Oc1nc(-c2noc3c2CCC[C@@]32CCCc3sc(N)c(C#N)c32)nc2c1CCC21CCOC1)[C@@H]1CCCN1C (some centres unmarked) [II-18],141 nM
5,CO[C@@H]1C[C@@H]([C@H](C)Oc2nc(-c3noc4c3CCC[C@@]43CCCc4sc(N)c(C#N)c43)nc3c2n(C)c(=O)n3[C@@]23COC[C@@H]2C3)N(C)C1 [II-6],11 nM
6,CO[C@@H]1C[C@@H]([C@H](C)Oc2nc(-c3onc4c3CCC[C@@]43CCCc4sc(N)c(C#N)c43)nc3c2n(C)c(=O)n3[C@@]23COC[C@@H]2C3)N(C)C1 [I-46],21 nM
7,CO[C@@H]1C[C@@H]([C@H](C)Oc2nc(-c3onc4c3CCC[C@@]43CCCc4sc(N)c(C#N)c43)nc3c2n(C)c(=O)n3[C@@H]2CCCOC2)N(C)C1 [I-14],6 nM
8,C[C@H](Oc1nc(-c2noc3c2CCC[C@@]32CCCc3sc(N)c(C#N)c32)nc2c1CCO[C@]21CCOC1)[C@@H]1CCCN1C [II-9b],12 nM
9,C[C@H](Oc1nc(-c2onc3c2CCC[C@@]32CCCc3sc(N)c(C#N)c32)nc2c1n(C)c(=O)n2[C@@H]1CCOC1)[C@@H]1[C@H](F)CCN1C [I-4],181 nM
10,C[C@H](Oc1nc(-c2onc3c2CCC[C@@]32CCCc3sc(N)c(C#N)c32)nc2c1n(C)c(=O)n2[C@@H]1CCOC1)[C@@H]1C[C@@H]2C[C@@H]2N1C [I-28],105 nM
11,CO[C@@H]1C[C@@H]([C@H](C)Oc2nc(-c3noc4c3CCC[C@@]43CCCc4sc(N)c(C#N)c43)nc3c2COC[C@]32CCOC2)N(C)C1 [II-11],6 nM

# System: not listed separately
# Test: Plasma protein binding assay (PPB), equilibrium dialysis
# Assay type: in vitro ADME
# Conditions: bovine, 10% FCS in PBS, read-out: PPB 10% FCS (% fu)
# Procedure: Binding of test compounds to plasma was determined using equilibrium dialysis (ED) and quantitative mass spectrometry interfaced with liquid chromatography (LC-MS). In brief, ED was performed with dialysis devices consisting of two chambers separated by a semipermeable membrane with a molecular weight cut-off of 5-10 kg/mol. One chamber was filled with 10% FCS in PBS containing 1-10 μmol/L test compound and the other chamber was filled with phosphate-buffer saline (PBS) with or without dextran. The dialysis chamber was incubated for 3-5 hours at 37° C. After incubation, protein was precipitated from aliquots of each chamber and the concentration of test compound in the supernatant of the plasma-containing compartment (cserum) and of the buffer-containing compartment (cbuffer) was determined by LC-MS. The fraction of unbound test compound (not bound to plasma) (f) was calculated according to the following equation: […]
row,SMILES,fraction unbound
1,C[C@H](Oc1nc(-c2onc3c2CCC[C@@]32CCCc3sc(N)c(C#N)c32)nc2c1cnn2[C@@H]1CCOC1)[C@@H]1CCCN1C [I-43],0.11
2,C[C@H](Oc1nc(-c2onc3c2CCC[C@@]32CCCc3sc(N)c(C#N)c32)nc2c1n(C)c(=O)n2[C@H]1CCOC1)[C@@H]1CCCN1C [I-9],0.25
3,C[C@H](Oc1nc(-c2onc3c2CCC[C@@]32CCCc3sc(N)c(C#N)c32)nc2c1n(C)c(=O)n2C12COC(C1)C2)[C@@H]1CCCN1C [I-15],0.13
4,C[C@H](Oc1nc(-c2noc3c2CCC[C@@]32CCCc3sc(N)c(C#N)c32)nc2c1CCC21CCOC1)[C@@H]1CCCN1C (some centres unmarked) [II-18],0.01
5,CO[C@@H]1C[C@@H]([C@H](C)Oc2nc(-c3noc4c3CCC[C@@]43CCCc4sc(N)c(C#N)c43)nc3c2n(C)c(=O)n3[C@@]23COC[C@@H]2C3)N(C)C1 [II-6],0.07
6,CO[C@@H]1C[C@@H]([C@H](C)Oc2nc(-c3onc4c3CCC[C@@]43CCCc4sc(N)c(C#N)c43)nc3c2n(C)c(=O)n3[C@@]23COC[C@@H]2C3)N(C)C1 [I-46],0.32
7,CO[C@@H]1C[C@@H]([C@H](C)Oc2nc(-c3onc4c3CCC[C@@]43CCCc4sc(N)c(C#N)c43)nc3c2n(C)c(=O)n3[C@@H]2CCCOC2)N(C)C1 [I-14],0.15
8,C[C@H](Oc1nc(-c2noc3c2CCC[C@@]32CCCc3sc(N)c(C#N)c32)nc2c1CCO[C@]21CCOC1)[C@@H]1CCCN1C [II-9b],0.09
9,C[C@H](Oc1nc(-c2onc3c2CCC[C@@]32CCCc3sc(N)c(C#N)c32)nc2c1n(C)c(=O)n2[C@@H]1CCOC1)[C@@H]1[C@H](F)CCN1C [I-4],0.13
10,C[C@H](Oc1nc(-c2onc3c2CCC[C@@]32CCCc3sc(N)c(C#N)c32)nc2c1n(C)c(=O)n2[C@@H]1CCOC1)[C@@H]1C[C@@H]2C[C@@H]2N1C [I-28],0.05
11,CO[C@@H]1C[C@@H]([C@H](C)Oc2nc(-c3noc4c3CCC[C@@]43CCCc4sc(N)c(C#N)c43)nc3c2COC[C@]32CCOC2)N(C)C1 [II-11],0.09
